The results in this text go back to ChEMBL document CHEMBL1201862, “PubChem BioAssay data set” (2004).

Assay in all cases: NCI anticancer screen, dose series, 48 h
For test [1], the system named is XF498.
The test system of test [2] is PC-3.
The test system of test [3] is DLD-1.
Test [4] concerns NCI/ADR-RES.
In test [5] the test system is MCF7.
The subject of test [6] is T47D.
The test system of test [7] is MDA-MB-435.
The subject of test [8] is SF-268.
For test [9], the system named is SNB-78.
Test [10] concerns DMS-273.
The test system of test [11] is HOP-18.
The subject of test [12] is TK-10.
Test [13] deals with M14.
For test [14], the system named is SR.
In test [15] the test system is A498.
The subject of test [16] is SF-539.
Test [17] relates to DMS-114.
The subject of test [18] is HT-29.
Test [19] concerns MDA-MB-231.
Test [20] has as its system M19-MEL.

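Test compounds were applied to cells in 96-well plates for 48 hours at 5 doses. GI50 marks 50% less growth.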 Activity calls are given as the source filed them. Rule as the data show it: active = GI50 up to about 1.1 µM and inactive = higher.

As for `CC1(C)C(=O)/C=C\C(=O)C(C)(C)C2=CC=C(O2)C(C)(C)C(=O)C(Br)C(Br)C(=O)C(C)(C)C2=CC=C1O2` (stereo unspecified), the GI50 is > 67.5 µM (inactive) in test [1]; > 100 µM (inactive) in [2]; 13.6 µM (inactive) in test [3]; 23.2 µM (inactive) in test [4]; 33.6 µM (inactive) in [5]; > 81.7 µM (inactive) in [6]. Also, the GI50 in test [7] is 34.4 µM (inactive); in [8], > 66.5 µM (inactive); in test [9] it was 41.8 µM (inactive); in [10], 33.3 µM (inactive); in test [11], > 100 µM (inactive); in test [12], > 100 µM (inactive). Also, the GI50 in test [13] is 58.7 µM (inactive); in test [14] it was 2.12 µM (inactive); in test [15] it was > 100 µM (inactive); in test [16] it was > 68.9 µM (inactive); in test [17] it was > 31.6 µM (inactive); in [18] it was 41.8 µM (inactive). Further, the figures for the GI50 in test [19] and in [20] were 27.4 µM (inactive) and 53.7 µM (inactive), respectively.
For `O=C1C(=O)c2cc([N+](=O)[O-])ccc2-c2ccc([N+](=O)[O-])cc21`, the GI50 in [1] is 1.23 µM (inactive); in [3], 1.64 µM (inactive); in [4], 0.344 µM (active); in [5], 0.933 µM (active); in [8], 0.484 µM (active); in [9] it was 0.698 µM (active). Moreover, the GI50 in test [10] is 0.397 µM (active); in test [11] it was 1.71 µM (inactive); in test [15] it was 1.9 µM (inactive); in [16] it was 0.741 µM (active); in [17], 0.375 µM (active); in [18], 7.46 µM (inactive). For the same compound, the GI50 in test [20] was 0.285 µM (active).
For `Nc1c(C(=O)Nc2ccc(C3=NCCN3)cc2)cccc1C(=O)Nc1ccc(C2=NCCN2)cc1`, the GI50 in test [1] was > 100 µM (inactive); in [3], > 100 µM (inactive); in [4], > 100 µM (inactive); in [5], > 100 µM (inactive); in [8], > 100 µM (inactive); in [9] it was > 83.8 µM (inactive). Besides, the GI50 in [10], in test [11], in test [15], in [16], in test [17] and in [18] was > 100 µM (inactive) throughout. Further, the GI50 in [20] is > 100 µM (inactive).
